Earlier results in US20040018228A1, “Compositions and methods for reducing scar tissue formation” (Afmedica, Inc., priority 2000, published 2004).

Tests used:
[1] = tested on: keloids; settings: in vivo

SMILES	solubility in aqueous solutions	treatment of keloids [1]
CO[C@H]1C[C@@H]2CC[C@@H](C)[C@@](O)(O2)C(=O)C(=O)N2CCCC[C@H]2C(=O)O[C@H]([C@H](C)C[C@@H]2CC[C@@H](O)[C@H](OC)C2)CC(=O)[C@H](C)/C=C(\C)[C@@H](O)[C@@H](OC)C(=O)[C@H](C)C[C@H](C)/C=C/C=C/C=C/1C [sirolimus]	not to be readily soluble in aqueous solutions	–
C=CC[C@@H]1/C=C(\C)C[C@H](C)C[C@H](OC)[C@H]2O[C@@](O)(C(=O)C(=O)N3CCCC[C@H]3C(=O)O[C@H](/C(C)=C/[C@@H]3CC[C@@H](O)[C@H](OC)C3)[C@H](C)[C@@H](O)CC1=O)[C@H](C)C[C@@H]2OC [tacrolimus]	–	effectively treat keloids
